Laboratory results as given in patent publication US10231933B2, “Enteric coated, soluble creatine and polyethylene glycol composition for enhanced skeletal uptake of oral creatine” (CRYXA LLC, priority 2007, dated 2019).

Experiments:
[1] = Muscle biopsy (vastus lateralis) ATP, creatine phosphate and creatine concentrations pre- and post-supplementation; type: in vivo, human
Procedure: The participants selected had the following characteristics:
Pre and post muscle biopsies were obtained from the vastus lateralis muscle. Samples were immediately frozen in liquid nitrogen and stored at −80° C. for later analysis. The frozen samples were weighed to the nearest 0.1 mg, freeze dried for 8 hours and reweighed. The tissue samples were extracted and then analyzed for creatine, creatine phosphate, and ATP content via […].

[2] = known; cited from earlier work
[3] = Blood chemistries pre- and post-supplementation; type: in vivo, human; set-up: ALT (SGPT): unit not given here
[4] = Post 5 days supplementation, muscle biopsy
[5] = post-suppl., 5 days, control 20 gm/day, experimental 10 gm/day creatine equivalent
[6] = male, human, blood, oral, 20 gm/day

CN(CC(=O)O)C(=N)N.O [creatine•H2O, creatine monohydrate]
skeletal muscle uptake (comparison of the two) ([1]; 50 g creatine equivalents total (creatine HCl/PEG) vs 100 g total (creatine.H2O)): similar
ATP [1, 4]: 22.7 ± 1.2 μM · gdw^−1
Creatine [1, 4]: 39.2 ± 2.7 μM · gdw^−1
Creatine · ATP^−1 (ratio) [1, 4]: 2.01 ± 0.33 ratio
creatine phosphate [1, 4]: 75.6 ± 4.0 μM · gdw^−1
creatine phosphate/ATP^−1 [1, 4]: 3.34 ± 0.01
ATP ([1]; Pre, muscle biopsy): 21.6 ± 1.4 μM · gdw^−1
Creatine ([1]; Pre, muscle biopsy): 23.0 ± 4.2 μM · gdw^−1
Creatine · ATP^−1 (ratio) ([1]; Pre, muscle biopsy): 1.36 ± 0.36 ratio
creatine phosphate ([1]; Pre, muscle biopsy): 71.7 ± 4.8 μM · gdw^−1
creatine phosphate/ATP^−1 ([1]; Pre, muscle biopsy): 3.33 ± 0.01
muscle concentrations of free creatine and total creatine by the end of the study ([1]; end of 5 days supplementation): significantly elevated
CELLULAR ATP (molar ratio) [1, 5]: 5.07 ± 0.24 molar ratio
UPTAKE EFFICACY [1, 5]: 5.85 ± 1.85
free creatine [1, 5]: 39.2 ± 2.7 μM · gdw^−1
CELLULAR ATP (molar ratio) ([1]; pre-suppl., muscle biopsy): 4.48 ± 0.30 molar ratio
free creatine ([1]; pre-suppl., muscle biopsy): 23.0 ± 4.2 μM · gdw^−1
breakdown in the stomach [2]: rapidly breaks down in the stomach to form creatinine
time of peak blood concentration post-ingestion (5 hour sampling, experimental peak may not have been fully achieved): two hours
Integrated area under curve (5 hr sampling period post-ingestion): 91.8 ± 5.5 mg · dL^−1 · 5 hrs^−1
Circulating concentrations of creatine (Pre ingestion): 0.47 ± 0.35 mg/dL
concentration at 15 min [6]: 40.8 ± 11.4 µg/mL
concentration at 30 min [6]: 138 ± 18.6 µg/mL
concentration at 1 h [6]: 208 ± 18.7 µg/mL
concentration at 2 h [6]: 260 ± 29.6 µg/mL
concentration at 3 h [6]: 242 ± 12.9 µg/mL
concentration at 4 h [6]: 162 ± 11.3 µg/mL
concentration at 5 h [6]: 102 ± 8.5 µg/mL
time by which blood creatine concentrations increased significantly (post-ingestion): ≤ 15 min
peak blood concentration of creatine (within five hours post-ingestion): 25.99 ± 2.96 mg/dL
A/G Ratio (ratio) ([3]; Post): 1.88 ± 0.06 ratio
ALT (SGPT) ([3]; Post): 20.9 ± 4.1
AST (SGOT) ([3]; Post): 23.3 ± 2.1 IU · L^−1
Albumin, Serum ([3]; Post): 4.5 ± 0.1 g/dL
Alk. Phosphatase ([3]; Post): 85.4 ± 9.3 IU · L^−1
BUN ([3]; Post): 17.9 ± 1.8 mg/dL
BUN/Creatinine (ratio) ([3]; Post): 16.3 ± 1.4 ratio
Bilirubin, Total ([3]; Post): 0.6 ± 0.1 mg/dL
Calcium, Serum ([3]; Post): 9.7 ± 0.1 mg/dL
Carbon Dioxide ([3]; Post): 25.8 ± 0.7 mM · L^−1
Chloride, Serum ([3]; Post): 101.9 ± 0.7 mM · L^−1
Creatinine, Serum ([3]; Post): 1.09 ± 0.07 mg/dL
Globulin, Serum ([3]; Post): 2.4 ± 0.1 g/dL
Glucose, Serum ([3]; Post): 82.6 ± 4.3 mg/dL
Iron, Serum ([3]; Post): 103.3 ± 14.2 µg/dL
LDH ([3]; Post): 157.9 ± 8.2 IU · L^−1
Phosphorus, Serum ([3]; Post): 4.3 ± 0.3 mg/dL
Potassium, Serum ([3]; Post): 4.4 ± 0.1 mM · L^−1
Protein, Serum ([3]; Post): 6.9 ± 0.1 g/dL
Sodium, Serum ([3]; Post): 138.6 ± 0.6 mM · L^−1
Uric Acid, Serum ([3]; Post): 4.7 ± 0.2 mg/dL
A/G Ratio (ratio) ([3]; Pre): 1.77 ± 0.06 ratio
ALT (SGPT) ([3]; Pre): 24.1 ± 4.5
AST (SGOT) ([3]; Pre): 25.3 ± 3.6 IU · L^−1
Albumin, Serum ([3]; Pre): 4.5 ± 0.1 g/dL
Alk. Phosphatase ([3]; Pre): 78.7 ± 10.1 IU · L^−1
BUN ([3]; Pre): 16.4 ± 1.4 mg/dL
BUN/Creatinine (ratio) ([3]; Pre): 17.8 ± 1.3 ratio
Bilirubin, Total ([3]; Pre): 0.6 ± 0.1 mg/dL
Calcium, Serum ([3]; Pre): 9.9 ± 0.1 mg/dL
Carbon Dioxide ([3]; Pre): 26.7 ± 0.4 mM · L^−1
Chloride, Serum ([3]; Pre): 101.0 ± 0.5 mM · L^−1
Creatinine, Serum ([3]; Pre): 0.93 ± 0.04 mg/dL
Globulin, Serum ([3]; Pre): 2.6 ± 0.1 g/dL
Glucose, Serum ([3]; Pre): 86.7 ± 2.7 mg/dL
Iron, Serum ([3]; Pre): 88.8 ± 10.5 µg/dL
LDH ([3]; Pre): 155.0 ± 6.0 IU · L^−1
Phosphorus, Serum ([3]; Pre): 4.3 ± 0.1 mg/dL
Potassium, Serum ([3]; Pre): 4.3 ± 0.1 mM · L^−1
Protein, Serum ([3]; Pre): 7.1 ± 0.1 g/dL
Sodium, Serum ([3]; Pre): 139.1 ± 0.5 mM · L^−1
Uric Acid, Serum ([3]; Pre): 5.6 ± 0.3 mg/dL
